Results taken from publication PMC12072072 (International Journal of Molecular Sciences, 2025).
Read-outs that look alike come from different tables or passages of the source.

Assays:
[1] = test system: CHO (Chinese hamster ovary); assay: MTT assay, CHO cells; format: cell-based; details: for IC50: Cricetulus griseus, CHO, MTT assay, CHO cells, value (standard deviation), read-out: IC50 [μM] (±s) CHO; for Selectivity Index (SI) CHO: IC50 of HDFs / IC50 of CHO
Description: (§1) Each medium was supplemented with 10% fetal bovine serum, 1% L-glutamine, and 1% penicillin/streptomycin solution. The cell lines were incubated at 37 °C in a humidified atmosphere containing 5% CO2. Cells were counted using the Fuchs–Rosenthal counting chamber (hemocytometer) with modifications.
(§2) The final product of this reaction gives violet formazan crystals. The number of live cells is proportional to the amount of formazan and is represented by the violet dye reagent. The details of the experiments are given, e.g., in [54].
(§3) Statistical analyses for the cytotoxic activity were carried out using the nonparametric Kruskal–Wallis H test for unpaired data and ANOVA Friedman two-way analysis of variance test for paired data. Statistical significance was tested using Dunn’s post-hoc test. The IC50 values compared to the control IC50 were calculated using GraphPad Prism v. 10.1.1. software.

[2] = test system: SKOV-3 (human ovarian carcinoma); details: MTT assay, SKOV-3 cells; published earlier; ref [41]; read-out: IC50 [μM] (±s) SKOV-3; cited from earlier work
[3] = test system: HDFs (human dermal fibroblasts); details: MTT assay, published earlier, ref [41], read-out: IC50 [μM] (±s) HDFs; cited from earlier work
[4] = test system: A-549 (human lung carcinoma); assay: MTT assay, A-549 cells; format: cell-based; details: for IC50: Homo sapiens, A549, MTT assay, A-549 cells, value (standard deviation), read-out: IC50 [μM] (±s) A-549; for Selectivity Index (SI) A-549: IC50 of HDFs / IC50 of A-549
Description: as §1, §2, §3

[5] = test system: PC-3 (human prostate carcinoma); assay: MTT assay, PC-3 cells; format: cell-based; details: for IC50: PC-3 cells, value (standard deviation), read-out: IC50 [μM] (±s) PC-3; for Selectivity Index (SI) PC-3: IC50 of HDFs / IC50 of PC-3
Description: as §1, §2, §3

[6] = test system: SKOV-3 (human ovarian carcinoma); assay: MTT assay, SKOV-3 cells; format: cell-based; details: for IC50: SKOV-3 cells, value (standard deviation), read-out: IC50 [μM] (±s) SKOV-3; for Selectivity Index (SI) SKOV-3: IC50 of HDFs / IC50 of SKOV-3
Description: as §1, §2, §3

[7] = test system: HDFs (human dermal fibroblasts); assay: MTT assay, HDFs (normal cells); format: cell-based; details: Fibroblast, value (standard deviation), read-out: IC50 [μM] (±s) HDFs
Description: as §1, §2, §3

[8] = test system: PC-3 (human prostate carcinoma); assay: Cell Death Detection ELISA Plus, PC-3; format: cell-based; details: DNA fragmentation ELISA, sample vs negative control; tested at 0.1, 1.0 and 10.0 µg/mL, concentration of the value not stated
Description: (§4) The induction of apoptosis by tested compounds was determined with Cell Death Detection ELISA Plus from Roche Diagnostics GmbH (Mannheim, Germany).
(§5) The Cell Death Detection ELISA PLUS photometric enzyme immunoassay is used to quantitatively in vitro determination of cytoplasmic histone-associated DNA fragments (mono- and oligonucleosomes) after induced cell death. The kit contains a stop solution that allows users to terminate the substrate reaction and run the assay under defined conditions, making it suitable for high-throughput applications. This kit can be used for the relative quantification of histone-complexed DNA fragments (mono- and oligonucleosomes) out of the cytoplasm of cells after the induction of apoptosis or when released from necrotic cells. […] The antibodies used in the assay are not species-specific; therefore, the kit may be used to assay cells from various species. The details of the experiments are given in [74]. As an internal reference compound (cytostatic drug), camptothecin (topoisomerase I-inhibitor) was used in this study to induce apoptosis. The negative control is the sample without camptothecin treatment. […] Cells were counted using a Fuchs–Rosenthal counting chamber (hemocytometer) with modifications. The apoptotic index was calculated based on the enrichment of mono- and oligonucleosomes according to the following equation:apoptotic index = [{A405(sample) − A490(sample)}/{A405(negative control) − A490(negative control)}]

[9] = test system: SKOV-3 (human ovarian carcinoma); assay: Cell Death Detection ELISA Plus, SKOV-3; format: cell-based; details: DNA fragmentation ELISA, sample vs negative control; tested at 0.1, 1.0 and 10.0 µg/mL, concentration of the value not stated
Description: as §4, §5

[10] = test system: A-549, PC-3, and SKOV-3; assay: MTT assay, statements over the cancer cell lines together; format: cell-based, human; details: for IC50: MTT assay, A-549, PC-3 and SKOV-3 together, summary of Table 3, read-out: IC50 stated over the cancer cell lines together; for Selectivity Index stated over the tested cell lines together: IC50 of HDFs / IC50 of cell line, text summary of Table 4
Description: as §1, §2

[11] = Solubility (remark); format: physicochemical; details: remark among limitations, solvent not stated
[12] = Homo sapiens, SK-OV-3, MTT assay

Row | Compound | IC50 [4] [µM] | IC50 ([5]; Homo sapiens, PC-3, MTT assay) [µM] | IC50 [6, 12] [µM] | IC50 ([10]; Homo sapiens) [µM] | solubility [11] | IC50 [10] [µM] | IC50 [1] [µM] | IC50 [2] [µM] | IC50 [3] [µM] | Selectivity Index (SI) CHO [1] | Selectivity Index (SI) A-549 [4] | Selectivity Index (SI) PC-3 [5] | IC50 ([5]; MTT assay) [µM] | Selectivity Index (SI) SKOV-3 [6] | IC50 ([6]; MTT assay) [µM] | IC50 [7] [µM] | Apoptotic Index (AI) PC-3 [8] | Apoptotic Index (AI) SKOV-3 [9] | Selectivity Index stated over the tested cell lines together [10]
1 | CC1(C)CC[C@]2(C(=O)O)CC[C@]3(C)C(=CC[C@@H]4[C@@]5(C)CC[C@H](O)C(C)(C)[C@@H]5CC[C@]43C)[C@@H]2C1 [Compound 1, oleanolic acid] | – | – | – | – | – | – | 9.16 | 18.8 | 24.9 | – | – | – | – | – | – | – | – | – | –
2 | CC(=O)O[C@H]1CC[C@@]2(C)C(CC[C@]3(C)C2C[C@H](O)[C@]24OC(=O)[C@@]5(CCC(C)(C)CC52)CC[C@]43C)C1(C)C (stereo partly drawn) [Compound 2, 3β-Acetoxy-12α-hydroxyolean-28-oic acid 28β→13β-olide] | 4.68 | 1.88 | 1.73 | 1 to 9 | – | – | 4.19 | – | – | 1.79 | 1.60 | 2.30 | 3.26 | 2.54 | 2.96 | 7.51 | 4.76 (0.02) | 4.71 (0.11) | exceeds 2
3 | CC(=O)OC1CCC2(C)C(CCC3(C)C2CC(=NO)C24OC(=O)C5(CCC(C)(C)CC52)CCC34C)C1(C)C (stereo not drawn) [Compound 6, 3β-Acetoxy-12-hydroxyiminoolean-28-oic acid 28β→13β-olide] | 1.27 | 1.88 | 1.73 | 1 to 9 | – | – | – | – | – | 0.71 | 3.08 | 2.08 | – | 2.26 | – | 3.91 | 7.28 (0.02) | 7.22 (0.06) | exceeds 2
4 | CC1(C)CC[C@@]23CC[C@]4(C)[C@@](OC2=O)(C3C1)[C@@H](Br)CC1[C@@]2(C)CCC(=O)C(C)(C)C2CC[C@]14C (stereo partly drawn) [Compound 10, 12α-Bromo-3-oxoolean-28-oic acid 28β→13β-olide] | 15.6 | 12.9 | 12.1 | 11 to 90 | – | 12 to 15 | 21.4 | – | – | 1.83 | 2.51 | 3.02 | – | 3.24 | – | 39.1 | 5.82 (0.04) | 5.05 (0.03) | exceeds 2
5 | CC1(C)CC[C@@]23CC[C@]4(C)[C@@](OC2=O)(C3C1)[C@@H](Br)CC1[C@@]2(C)CCC(=O)NC(C)(C)C2CC[C@]14C (stereo partly drawn) [Compound 13, 12α-bromo-3-oxo-3a-aza-A-homoolean-28-oic acid 28β→13β-olide] | 89.3 | 73.1 | 75.8 | 11 to 90 | poor solubility | – | > 100 | – | – | – | 1.00 | 1.22 | – | 1.18 | – | 89.4 | – | – | –

Further lines, with some results ahead:

Row | IC50 [4] [µM] | IC50 ([5]; Homo sapiens, PC-3, MTT assay) [µM] | IC50 [6, 12] [µM] | IC50 ([10]; Homo sapiens) [µM] | solubility [11] | IC50 [10] [µM] | Compound | IC50 [1] [µM] | IC50 [2] [µM] | IC50 [3] [µM] | Selectivity Index (SI) CHO [1] | Selectivity Index (SI) A-549 [4] | Selectivity Index (SI) PC-3 [5] | IC50 ([5]; MTT assay) [µM] | Selectivity Index (SI) SKOV-3 [6] | IC50 ([6]; MTT assay) [µM] | IC50 [7] [µM] | Apoptotic Index (AI) PC-3 [8] | Apoptotic Index (AI) SKOV-3 [9] | Selectivity Index stated over the tested cell lines together [10]
6 | 66.1 | > 100 | > 100 | > 100 | poor solubility | – | CC1(C)CC[C@@]23CC[C@@]4(C)[C@]5(C)CCC6C(C)(C)C(=O)CC[C@]6(C)C5CC(=O)[C@]4(OC2=O)C3C1 (stereo partly drawn) [Compound 7, 3,12-Dioxoolean-28-oic acid 28β→13β-olide] | > 100 | – | – | – | – | – | – | – | – | > 100 | – | – | –
7 | > 100 | > 100 | > 100 | > 100 | poor solubility | – | CC1(C)CC[C@@]23CC[C@@]4(C)[C@]5(C)CCC6C(C)(C)[C@@H](O)CC[C@]6(C)C5C/C(=N\O)[C@]4(OC2=O)C3C1 (stereo partly drawn) [Compound 8, 3β-Hydroxy-12-hydroxyiminoolean-28-oic acid 28β→13β-olide] | > 100 | – | – | – | – | – | – | – | – | > 100 | – | – | –
8 | 7.88 | 6.27 | 6.22 | – | – | < 10 | C=C(C)C1CC[C@]2(C)C(C[C@H](Br)[C@]34OC(=O)[C@@]5(CCC(C)(C)CC53)CC[C@]42C)[C@@]1(C)CCC#N (stereo partly drawn) [Compound 12, 12α-Bromo-3-nitrilo-3,4-secoolean-4(23)-ene-28-oic acid 28β→13β-olide] | 9.23 | – | – | 0.99 | 1.15 | 1.46 | – | 1.47 | – | 9.13 | 5.43 (0.05) | 5.11 (0.01) | –
